Laboratory results as given in US20210348177A1, “GENERATION OF HERITABLY GENE-EDITED PLANTS WITHOUT TISSUE CULTURE” (priority 2018, published 2021).
“Also recorded” adds a separate entry of the source.

Legend:
[1] = test system: Arabidopsis thaliana; conditions: no DAAO; cited from earlier work
[2] = test system: plants that express DAAO; conditions: at the level of 30 mM; cited from earlier work
[3] = test system: HSVtk plants; experiment: Toxicity of GAN: shoot regeneration of decapitated HSVtk plants; assay type: in vivo, tomato; conditions: for Regeneration of HSVtk plants: one month after decapitation
Method: (§1) Roughly one week later, seedlings were decapitated at the injection site using a sharp razor blade. Immediately after decapitation, parafilm was stretched over the decapitation site, to prevent the stem from drying out, and aluminum foil was added to cover the parafilm, shading the cut site to promote callus formation. Plants were returned to growth chamber and monitored for axillary shoot formation and callus regeneration. New shoots forming from the cotyledon axillary buds were removed using forceps as soon as they were observed.
(§2) After 1-2 weeks, the cut site of the stem began forming a white callus, and selection gel was applied. Carbomer 940 powder was added to a water solution containing selection agents to make 0.5% w/v carbomer gel. The pH was adjusted with KOH to 7.5 to thicken the gel. The gel containing the selecting agents was added to the decapitated plants by putting a droplet of the gel to the wound site of the shoot using spatula, about 40-50 uL in volume. Parafilm and aluminum foil was placed back on the cut site, and plants were returned to growth chamber. […] Parafilm and foil were removed from decapitation sites, and shoots were allowed to grow.
(§3) Solutions of D-amino acids were made from D-valine powder (MP Biomedicals 0210322625) and D/L-isoleucine powder (MP Biomedicals 0210208225). Zirgan (ganciclovir ophthalmic gel) 0.15%, an antiviral eye gel was used in making GAN gel, as well as in direct application on decapitated plants.
(§4) HSVtk (no Cas9) plants were germinated and grown in soil. They were decapitated about three weeks after they were sown. The selecting agent, GAN (Ganciclovir), was applied to the decapitated plants after the decapitation. We made a series of GAN gels with different GAN concentrations: 0.1 mM, 1 mM, and 4.5 mM. The 0.1 mM and 1 mM GAN gel was made by diluting the Zirgan ganciclovir ophthalmic gel (4.5 mM GAN) into 0.2% carbomer gel. The two gels were mixed in a 4 mL plastic vial by shaking. Around […] GAN gel was applied to each plant each time, and the gel application was renewed every three to five days.
(§5) We tested whether the carbomer gel itself would have an influence on plant regeneration. We included a group of wildtype plants that received no treatment, and a group of wildtype plants that received carbomer gel containing no GAN. All plants in both groups, except one plant in the control set, regenerated new shoots. Therefore, we eliminated the possibility of regeneration interference from the gel.
(§6) One month after the decapitation and application of GAN selection, the regeneration of shoots was evaluated. In the control plants with 0 mM GAN treatment, including HSVtk and wildtype plants, almost all the plants regenerated new shoots. […] Thus, we concluded that GAN was toxic to both HSVtk plants and wildtype plants at a concentration higher than 0.1 mM. However, as the GAN concentration increased, HSVtk plants became more sensitive to it than wildtype plants. At a concentration of 4.5 mM, GAN could prevent regeneration of the HSVtk plants, while still allowing some wildtype plants to regenerate. Therefore we decided to use a 2 mM dose as the effective selecting agent in our future experiments.

[4] = test system: transgene-free plants; experiment: Toxicity of GAN: shoot regeneration of decapitated transgene-free (wildtype) plants; assay type: in vivo, tomato; conditions: for Regeneration of transgene-free plants (control): one month after decapitation
Method: as §1, §2, §3, §4, §5, §6

[5] = test system: HSVtk transgene; experiment: CRISPR editing after agro-injection, decapitation and ganciclovir selection: HSVtk; assay type: in vivo, tomato; conditions: ganciclovir counter-selection of HSVtk+Cas9 lines, regenerated shoots
Method: In example two, we decapitated the seedlings at the first internode so that cells that were genome edited could form a callus, regenerate new meristems and stems. The Cas9 expressing mother plants were injected with the viral replicon vector and decapitated at the epicotyl a week later. The decapitation site was covered with parafilm and an aluminum foil cap for 4 weeks. Any axillary buds in the cotyledon node were removed. When a solid callus mass was visible (approx. four weeks after decapitation) at the wound site, the caps were removed and ganciclovir was applied (2 mM concentration of the compound in a carbomer gel). Every meristem that developed into a healthy shoot was detached and propagated to fruiting. Mutation level and type were analyzed by PCR and sequencing of amplicons flanking the target genomic sites. Regenerated stems were evaluated for mutation in the marker and POTATO LEAF (C) sequences and the expected change in leaf shape typical of a C knockout. We evaluated the correlation between the Cas9 modified HSVtk and C.
Agrobacterium glycerol stocks transformed with pTRV or pTAV vectors were streaked onto LB plates containing appropriate antibiotics based on plasmids and agro strains. […] After 24 hours, cultures were measured for OD600 using spectrophotometer. […] The next day, OD600 was measured for each culture. […]

[6] = test system: transgenic Arabidopsis root explants / leaf explants; conditions: 0.1 mM GAN; cited from earlier work
[7] = test system: transgene-free explants; conditions: 0.1 mM GAN; cited from earlier work

## CC[C@@H](C)[C@@H](N)C(=O)O [D-isoleucine]
[1]
  influence on plant growth: very little influence on plant growth
[2]
  effect on plants that express DAAO: deleterious effects

## N[C@H](CO)C(=O)O [D-serine]
[1]
  influence on plant growth: inhibit plant growth even at a low concentration

## C[C@@H](N)C(=O)O [D-alanine]
[1]
  influence on plant growth: inhibit plant growth even at a low concentration

## Nc1nc(O)c2ncn(COC(CO)CO)c2n1 [GAN, ganciclovir]
[3]; 0.1 mM GAN
  Regeneration of HSVtk plants (plants regenerated out of treated): (16 out of 18)
[3]; 0.1 mM GAN gel on decapitated plants
  Regeneration of HSVtk plants: 89%
[3]; 1 mM GAN
  Regeneration of HSVtk plants (plants regenerated out of treated): (4 out of 16)
[3]; 1 mM GAN gel on decapitated plants
  Regeneration of HSVtk plants: 25%
[3]; 4.5 mM GAN
  Regeneration of HSVtk plants (plants regenerated out of treated): none of the HSVtk plants regenerated; also recorded: (0 out of 10)
[3]; 4.5 mM GAN gel on decapitated plants
  Regeneration of HSVtk plants: 0%
[3]; decapitated plants, GAN gel, HSVtk and wildtype plants
  Concentration at which GAN was toxic to both HSVtk plants and wildtype plants: higher than 0.1 mM
[4]; 0.1 mM GAN
  Regeneration of transgene-free plants (plants regenerated out of treated): (14 out of 15)
[4]; 0.1 mM GAN gel
  Regeneration of transgene-free plants (control): 93%
[4]; 1 mM GAN
  Regeneration of transgene-free plants (plants regenerated out of treated): (8 out of 15)
[4]; 1 mM GAN gel
  Regeneration of transgene-free plants (control): 53%
[4]; 4.5 mM GAN
  Regeneration of transgene-free plants (plants regenerated out of treated): 6 out of 23 and (6 out of 23)
[4]; 4.5 mM GAN gel
  Regeneration of transgene-free plants (control): 26%
[5]
  escapes at current ganciclovir concentrations: ~60%
[6]
  shoot regeneration on transgenic root explants or callus formation on leaf explants: significantly reduce
[7]
  regeneration of transgene-free explants: does not affect

## CC(C)[C@@H](N)C(=O)O [D-valine]
[1]
  influence on plant growth: very little influence on plant growth
[2]
  effect on plants that express DAAO: deleterious effects
